The values below come from patent US9428508B2, “2,4-diamino-6,7-dihydro-5H-pyrrolo[2,3]pyrimidine derivatives as FAK/Pyk2 inhibitors” (Centaurus BioPharma Co., Ltd., priority 2011, dated 2016).

Molecules are shown by their SMILES. Where only a bound is given, the exact number is not on record here.

In one assay the target is PYK2 (Homo sapiens (Human), UniProt Q14289). The assay is described as follows: Biochemical assay for PYK2 activity (LANCE TR-FRET, ULight-poly Glu,Ala,Tyr substrate). Conditions: GST-tagged PYK2, 40 min reaction. As to the method:
(§1) Biochemical Assay for FAK/Pyk2 Activity
(§2) GST-tagged FAK was purchased from Invitrogen (PV3832). GST-tagged PYK2 was purchased from Invitrogen (PV4567). The activity of FAK/PYK2 was measured by monitoring the phosphorylation of a fluorophore labeled ULight-poly Glu, Ala, Tyr (1:1:1) peptide substrate from Perkin Elmer (TRF0101) in the presence of ATP. The phosphorylated tyrosine residue was recognized by a LANCE Europium chelate labeled anti-phosphotyrosine (PY20) antibody from Perkin Elmer (AD0066). This brought the fluorophore and europium chelate in close proximity ([…]) that upon excitation at 320 nm by an Envision (PerkinElmer), energy can be transferred from the donor Europium chelate to the acceptor fluorophore. […] The strength of the signal was, therefore, directly proportional to the FAK/PYK2 activity.
(§3) To measure inhibitory activity of FAK/PYK2 inhibitors, compounds were first prepare as a 1 mM stock in 100% DMSO and 3-fold serial dilution was performed in a 96-well plate (Corning, 3897) to generate 12 different concentration of 100× stock. A 5 μl of 100× stock of each concentration was added to wells containing 95 μl of 1× reaction buffer (40 mM Tris, pH7.5, […], 1 mM DTT and 1 mM CHAPS) to generate 5× stock. Then 2 μl of 5× stock of each concentration was added to a 384 wells-OptiPlate (PerkinElmer, 6007299).
For PYK2, 5 μl of 2 nM PYK2 and 1.5 μl of 666 nM ULight-poly Glu, Ala, Tyr (1:1:1) peptide substrate, prepared in above reaction buffer, were added to each well. The reaction was initiated by adding 1.5 μl of 46.6 μM ATP. The reaction was allowed to proceed for 40 min before being quenched with 5 μl of 40 mM EDTA stop buffer prepared in 1×LANCE detection buffer (PerkinElmer, CR97-100).
(§4) Upon quenching of the reaction, 5 μl of 8 nM anti-phosphotyrosine antibody was added to each well and incubated for 60 minutes. The plate was measured using an Envision (PerkinElmer) based on the theory mentioned above.
In general terms: TR-FRET usually uses a lanthanide donor and a delayed reading to cut background.

Another assay concerns the target FAK (Homo sapiens (Human), UniProt Q05397). Description: Biochemical assay for FAK activity (LANCE TR-FRET, ULight-poly Glu,Ala,Tyr substrate). Conditions: GST-tagged FAK, 120 min reaction. As to the method:
as §1, §2, §3
For FAK, 4 μl of 2.5 nM FAK, 1 ul of 8 μg/μl BSA and 1.5 μl of 666 nM ULight-poly Glu, Ala, Tyr (1:1:1) peptide substrate, prepared in above reaction buffer, were added to each well. The reaction was initiated by adding 1.5 μl of 33.3 μM ATP. The reaction was allowed to proceed for 120 min before being quenched with 5 μl of 40 mM EDTA stop buffer prepared in 1×LANCE detection buffer (PerkinElmer, CR97-100).
as §4

One may read the IC50 as the concentration that gives 50% inhibition. A lower IC50 goes with higher potency.

Sequence of PYK2 (Q14289 whole entry): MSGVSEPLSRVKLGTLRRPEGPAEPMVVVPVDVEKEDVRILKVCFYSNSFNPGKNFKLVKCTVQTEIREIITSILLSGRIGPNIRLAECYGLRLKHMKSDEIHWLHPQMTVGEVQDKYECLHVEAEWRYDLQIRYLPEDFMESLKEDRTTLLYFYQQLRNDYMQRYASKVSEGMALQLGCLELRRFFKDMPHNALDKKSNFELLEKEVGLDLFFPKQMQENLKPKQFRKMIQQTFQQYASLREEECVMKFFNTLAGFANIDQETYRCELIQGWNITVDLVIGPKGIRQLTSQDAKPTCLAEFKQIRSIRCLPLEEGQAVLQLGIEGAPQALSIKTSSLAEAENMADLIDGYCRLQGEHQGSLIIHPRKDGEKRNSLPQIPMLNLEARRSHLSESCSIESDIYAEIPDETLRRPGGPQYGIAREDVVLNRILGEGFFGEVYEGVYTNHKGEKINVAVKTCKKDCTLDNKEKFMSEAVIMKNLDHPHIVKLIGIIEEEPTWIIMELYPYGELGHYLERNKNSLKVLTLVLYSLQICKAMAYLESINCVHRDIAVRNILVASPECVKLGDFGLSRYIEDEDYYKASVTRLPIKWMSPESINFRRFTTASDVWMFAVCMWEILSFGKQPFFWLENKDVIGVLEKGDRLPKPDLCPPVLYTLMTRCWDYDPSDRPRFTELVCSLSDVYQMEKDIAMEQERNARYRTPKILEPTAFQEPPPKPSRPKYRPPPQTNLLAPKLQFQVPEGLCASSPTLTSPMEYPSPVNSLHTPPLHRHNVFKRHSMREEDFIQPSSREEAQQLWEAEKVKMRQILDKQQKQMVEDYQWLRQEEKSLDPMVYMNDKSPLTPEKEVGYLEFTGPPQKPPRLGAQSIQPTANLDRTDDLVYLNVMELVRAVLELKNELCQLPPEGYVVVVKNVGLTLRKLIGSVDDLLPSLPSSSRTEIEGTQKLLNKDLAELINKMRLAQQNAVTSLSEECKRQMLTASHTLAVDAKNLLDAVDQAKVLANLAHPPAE
Sequence of FAK (Q05397 whole entry): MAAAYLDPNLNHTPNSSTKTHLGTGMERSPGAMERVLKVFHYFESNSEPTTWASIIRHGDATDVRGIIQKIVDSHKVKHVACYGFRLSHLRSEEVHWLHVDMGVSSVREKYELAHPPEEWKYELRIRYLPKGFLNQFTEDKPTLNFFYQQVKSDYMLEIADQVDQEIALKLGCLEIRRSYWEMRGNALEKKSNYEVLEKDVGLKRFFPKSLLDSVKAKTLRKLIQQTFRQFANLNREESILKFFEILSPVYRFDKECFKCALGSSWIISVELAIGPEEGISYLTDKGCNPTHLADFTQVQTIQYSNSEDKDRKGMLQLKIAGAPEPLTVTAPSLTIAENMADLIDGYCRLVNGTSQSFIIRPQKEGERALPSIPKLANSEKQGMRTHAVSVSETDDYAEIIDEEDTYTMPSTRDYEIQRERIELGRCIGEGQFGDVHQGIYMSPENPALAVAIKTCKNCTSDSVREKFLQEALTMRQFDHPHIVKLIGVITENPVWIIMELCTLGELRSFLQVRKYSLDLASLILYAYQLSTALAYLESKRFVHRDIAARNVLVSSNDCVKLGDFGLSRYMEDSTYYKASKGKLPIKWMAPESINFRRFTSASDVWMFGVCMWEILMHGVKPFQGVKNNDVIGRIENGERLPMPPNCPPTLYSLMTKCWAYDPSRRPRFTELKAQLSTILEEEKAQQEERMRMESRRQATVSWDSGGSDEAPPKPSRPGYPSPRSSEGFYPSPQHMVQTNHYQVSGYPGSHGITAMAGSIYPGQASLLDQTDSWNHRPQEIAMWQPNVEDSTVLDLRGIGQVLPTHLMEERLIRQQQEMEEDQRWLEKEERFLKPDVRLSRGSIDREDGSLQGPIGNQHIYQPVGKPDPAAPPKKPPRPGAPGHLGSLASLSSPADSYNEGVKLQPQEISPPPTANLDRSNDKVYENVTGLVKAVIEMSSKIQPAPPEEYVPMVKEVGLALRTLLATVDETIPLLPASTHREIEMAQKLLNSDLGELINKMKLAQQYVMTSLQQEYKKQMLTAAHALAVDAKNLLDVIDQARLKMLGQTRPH

On to `CC(C)NC(C)c1ccc(Nc2nc3c(c(Nc4ccccc4S(=O)(=O)NC(C)C)n2)CCN3)cc1` (stereo not drawn) [Example 72, N-isopropyl-2-(2-(4-(1-(isopropylamino)ethyl)phenylamino)-6,7-dihydro-5H-pyrrolo[2,3-d]pyrimidin-4-ylamino)benzenesulfonamide], for which the IC50 against PYK2 and against FAK was less than 20 nM throughout.
Consider `COc1cc(N2CCOCC2)ccc1Nc1nc2c(c(Nc3ccc(F)c(F)c3)n1)C(C)(C)CN2` [Example 125, N^4-(3,4-difluorophenyl)-N^2-(2-methoxy-4-morpholinophenyl)-5,5-dimethyl-6,7-dihydro-5H-pyrrolo[2,3-d]pyrimidine-2,4-diamine], for which the results for the IC50 against PYK2 and against FAK were greater than 1000 nM and less than 1000 nM, respectively.
The like results for `COc1cc(N2CCC(N(C)C)CC2)ccc1Nc1nc2c(c(Nc3ccccc3S(=O)(=O)NC(C)C)n1)CCN2` [Example 76, 2-(2-(4-(4-(dimethylamino)piperidin-1-yl)-2-methoxyphenylamino)-6,7-dihydro-5H-pyrrolo[2,3-d]pyrimidin-4-ylamino)-N-isopropylbenzenesulfonamide] were, in that order, less than 20 nM and less than 20 nM.
The like results for `COCCCNS(=O)(=O)c1ccccc1Nc1nc(Nc2ccc(N3CCOCC3)cc2OC)nc2c1C(C)(C)CN2` [Example 114, 2-(2-(2-methoxy-4-morpholinophenylamino)-5,5-dimethyl-6,7-dihydro-5H-pyrrolo[2,3-d]pyrimidin-4-ylamino)-N-(3-methoxypropyl)benzenesulfonamide] were, in that order, less than 20 nM and less than 20 nM.
The like results for `COc1cc(N2CCC(N3CCNCC3)CC2)ccc1Nc1nc2c(c(Nc3ccccc3P(C)(C)=O)n1)CCN2` [Example 163, N^4-(2-(dimethylphosphoryl)phenyl)-N^2-(2-methoxy-4-(4-(piperazin-1-yl)piperidin-1-yl)phenyl)-6,7-dihydro-5H-pyrrolo[2,3-d]pyrimidine-2,4-diamine] were, in that order, less than 50 nM and less than 100 nM.
For `COc1cc(N2CCOCC2)ccc1Nc1nc2c(c(Nc3ccccc3S(=O)(=O)NC(C)(C)C)n1)C1(CC1)CN2` [Example 136, N-tert-butyl-2-(2′-(2-methoxy-4-morpholinophenylamino)-6′,7′-dihydrospiro[cyclopropane-1,5′-pyrrolo[2,3-d]pyrimidine]-4′-ylamino)benzenesulfonamide], the IC50 against PYK2 and against FAK was less than 20 nM in each case.
Consider `CCCNS(=O)(=O)c1ccccc1Nc1nc(Nc2ccc(N3CCOCC3)cc2OC)nc2c1C(C)(C)CN2` [Example 106, 2-(2-(2-methoxy-4-morpholinophenylamino)-5,5-dimethyl-6,7-dihydro-5H-pyrrolo[2,3-d]pyrimidin-4-ylamino)-N-propylbenzenesulfonamide], for which the IC50 against PYK2 and against FAK was less than 20 nM in each case.
As for `CNS(=O)(=O)c1ccccc1Nc1nc(Nc2cc(OC)c(OC)c(OC)c2)nc2c1C1(CC1)CN2` [Example 157, N-methyl-2-(2′-(3,4,5-trimethoxyphenylamino)-6′,7′-dihydrospiro[cyclopropane-1,5′-pyrrolo[2,3-d]pyrimidine]-4′-ylamino)benzenesulfonamide], the IC50 at PYK2 and at FAK was less than 20 nM in each case.
Turning to `CCC(C)NS(=O)(=O)c1ccccc1Nc1nc(Nc2ccc(N3CCOCC3)cc2OC)nc2c1CCN2` (stereo not drawn) [Example 44, N-sec-butyl-2-(2-(2-methoxy-4-morpholinophenylamino)-6,7-dihydro-5H-pyrrolo[2,3-d]pyrimidin-4-ylamino)benzenesulfonamide], the IC50 against PYK2 and at FAK was less than 20 nM throughout.
With `COc1cc(-n2cc(C)nc2C)ccc1Nc1nc2c(c(Nc3ccccc3S(=O)(=O)NC(C)C)n1)CCN2` [Example 90, 2-(2-(4-(2,4-dimethyl-1H-imidazol-1-yl)-2-methoxyphenylamino)-6,7-dihydro-5H-pyrrolo[2,3-d]pyrimidin-4-ylamino)-N-isopropylbenzenesulfonamide], the IC50 against PYK2 and on FAK was less than 20 nM in each case.
Take `CNC(=O)c1ccccc1Nc1nc(Nc2ccc(N3CCOCC3)cc2OC)nc2c1[C@@H](C)CN2` [Example 102, (R)-2-(2-(2-methoxy-4-morpholinophenylamino)-5-methyl-6,7-dihydro-5H-pyrrolo[2,3-d]pyrimidin-4-ylamino)-N-methylbenzamide]: the concentration for half-maximal inhibition (IC50) is less than 50 nM against PYK2 and less than 20 nM against FAK.
Regarding `COc1cc(N2CCC(N(C)C)C2)ccc1Nc1nc2c(c(Nc3ccccc3S(=O)(=O)NC(C)C)n1)CCN2` (stereo not drawn) [Example 89, 2-(2-(4-(3-(dimethylamino)pyrrolidin-1-yl)-2-methoxyphenylamino)-6,7-dihydro-5H-pyrrolo[2,3-d]pyrimidin-4-ylamino)-N-isopropylbenzenesulfonamide], the IC50 against PYK2 and against FAK was less than 20 nM throughout.
For the molecule `COc1cc(N2CCOCC2)ccc1Nc1nc2c(c(Nc3ccccc3S(=O)(=O)NCCN(C)C)n1)C(C)(C)CN2` [Example 120, N-(2-(dimethylamino)ethyl)-2-(2-(2-methoxy-4-morpholinophenylamino)-5,5-dimethyl-6,7-dihydro-5H-pyrrolo[2,3-d]pyrimidin-4-ylamino)benzenesulfonamide], the IC50 against PYK2 is less than 50 nM; against FAK, less than 20 nM.
Taken in the same sequence, the figures for `COc1cc(N2CCC(CO)CC2)ccc1Nc1nc2c(c(Nc3ccccc3S(=O)(=O)NC(C)C)n1)CCN2` [Example 79, 2-(2-(4-(4-(hydroxymethyl)piperidin-1-yl)-2-methoxyphenylamino)-6,7-dihydro-5H-pyrrolo[2,3-d]pyrimidin-4-ylamino)-N-isopropylbenzenesulfonamide] were less than 20 nM and less than 20 nM.
For `CC(C)NS(=O)(=O)c1ccccc1Nc1nc(Nc2ccc(CO)cc2)nc2c1CCN2` [Example 54, 2-(2-(4-(hydroxymethyl)phenylamino)-6,7-dihydro-5H-pyrrolo[2,3-d]pyrimidin-4-ylamino)-N-isopropylbenzenesulfonamide], the half-maximal inhibitory concentration (IC50) against PYK2 and on FAK was less than 20 nM in each case.
As to `COc1cc(OCCN2CCOCC2)ccc1Nc1nc2c(c(Nc3ccccc3S(=O)(=O)NC(C)C)n1)CCN2` [Example 70, N-isopropyl-2-(2-(2-methoxy-4-(2-morpholinoethoxy)phenylamino)-6,7-dihydro-5H-pyrrolo[2,3-d]pyrimidin-4-ylamino)benzenesulfonamide], the IC50 at PYK2 and against FAK was less than 20 nM in each case.
For `COc1cc(N2CCOCC2)ccc1Nc1nc2c(c(Nc3ccccc3S(=O)(=O)NC3CCC3)n1)C(C)(C)CN2` [Example 104, N-cyclobutyl-2-(2-(2-methoxy-4-morpholinophenylamino)-5,5-dimethyl-6,7-dihydro-5H-pyrrolo[2,3-d]pyrimidin-4-ylamino)benzenesulfonamide], the 50% inhibitory concentration (IC50) at PYK2 and at FAK was less than 20 nM in each case.
For the molecule `COc1cc(N2CCOCC2)ccc1Nc1nc2c(c(Nc3ccccc3C(=O)O)n1)CCN2` [Example 160, 2-(2-(2-methoxy-4-morpholinophenylamino)-6,7-dihydro-5H-pyrrolo[2,3-d]pyrimidin-4-ylamino)benzoic acid], the IC50 against PYK2 is less than 1000 nM; against FAK, less than 500 nM.
`COc1cc(N2CCOCC2)ccc1Nc1nc2c(c(Nc3ccccc3S(=O)(=O)NC3CCCC3)n1)C(C)(C)CN2` [Example 108, N-cyclopentyl-2-(2-(2-methoxy-4-morpholinophenylamino)-5,5-dimethyl-6,7-dihydro-5H-pyrrolo[2,3-d]pyrimidin-4-ylamino)benzenesulfonamide]: the IC50 on PYK2 was less than 500 nM; against FAK, less than 200 nM.
Taken in the same sequence, the figures for `COc1cc(N2CCOCC2)ccc1Nc1nc2c(c(Nc3ccccc3S(=O)(=O)NC(C)(C)C)n1)C(C)(C)CN2` [Example 117, N-tert-butyl-2-(2-(2-methoxy-4-morpholinophenylamino)-5,5-dimethyl-6,7-dihydro-5H-pyrrolo[2,3-d]pyrimidin-4-ylamino)benzenesulfonamide] were less than 20 nM and less than 20 nM.
`COCCCNS(=O)(=O)c1ccccc1Nc1nc(Nc2ccc(N3CCOCC3)cc2OC)nc2c1CCN2` [Example 48, 2-(2-(2-methoxy-4-morpholinophenylamino)-6,7-dihydro-5H-pyrrolo[2,3-d]pyrimidin-4-ylamino)-N-(3-methoxypropyl)benzenesulfonamide]: the IC50 against PYK2 and at FAK was less than 100 nM each time.
